Assay results taken from patent US20090239841A1, “Diaryl Ureas as CB1 Antagonists” (priority 2004, published 2009).

Biological target: T1, hCB1 (Homo sapiens, UniProt P21554)
T1 construct: made in house; host or cells: Sf9 insect cells (baculovirus), P2 membranes
Experiment: Agonist-induced GTP binding (GTPγ35S) assay at CB1, Example 8
Assay type: biochemical
Conditions: IC50 at CB1, determined as described in Example 8; read-out: IC50
Method in brief: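 Antagonism read as inhibition of 1 nM CP55,940-stimulated GTPγ35S ([…]) binding, compounds at 10^−10 to 10^−5 M. Baculovirus-infected Sf9 membranes bearing hCB1 plus G-protein subunits, 60 min room-temperature incubation with 5 μM GDP. Filtration and scintillation counting; data as percent over basal.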

T1 sequence (P21554 whole entry): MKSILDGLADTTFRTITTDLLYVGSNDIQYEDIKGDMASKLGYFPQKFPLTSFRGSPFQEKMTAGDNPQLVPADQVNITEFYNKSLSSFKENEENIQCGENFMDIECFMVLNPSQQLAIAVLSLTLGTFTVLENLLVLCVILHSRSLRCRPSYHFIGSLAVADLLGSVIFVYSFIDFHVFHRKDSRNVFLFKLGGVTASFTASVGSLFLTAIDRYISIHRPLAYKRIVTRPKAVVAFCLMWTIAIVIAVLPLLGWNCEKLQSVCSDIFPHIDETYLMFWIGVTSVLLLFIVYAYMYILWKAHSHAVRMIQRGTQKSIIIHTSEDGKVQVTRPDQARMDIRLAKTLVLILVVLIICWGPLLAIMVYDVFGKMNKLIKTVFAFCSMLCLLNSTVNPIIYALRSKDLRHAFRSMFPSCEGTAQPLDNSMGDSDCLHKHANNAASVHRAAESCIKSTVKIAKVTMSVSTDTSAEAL

IC50 [nM]	Structure (SMILES)
< 2000	CCOC(=O)c1ccc(NC(=O)Nc2cccc(C)c2)cc1 [Compound 473, ethyl 4-({[(3-methylphenyl)amino]carbonyl}amino)benzoate]
< 2000	Cc1ccc(NC(=O)Nc2cccc(OC(C)C)c2)cc1 [Compound 298, N-(3-isopropoxyphenyl)-N′-(4-methylphenyl)urea]
< 2000	Cc1cccc(NC(=O)Nc2ccc(C(=O)OC(C)C)cc2)c1 [Compound 477, isopropyl 4-({[(3-methylphenyl)amino]carbonyl}amino)benzoate]
< 2000	Cc1cccc(NC(=O)Nc2cccc(OC(F)F)c2)c1 [Compound 369, 1-[3-(difluoromethoxy)phenyl]-3-(3-methylphenyl)urea]
< 2000	O=C(Nc1ccc(Cn2cncn2)cc1)Nc1cccc(OC(F)F)c1 [Compound 784, N-[3-(difluoromethoxy)phenyl]-N′-[4-(1H-1,2,4-triazol-1-ylmethyl)phenyl]urea]
< 2000	Cc1cccc(NC(=O)Nc2ccc(OCC#N)cc2)c1 [Compound 464, 1-[4-(cyanomethoxy)phenyl]-3-(3-methylphenyl)urea]
< 2000	CCc1ccc(NC(=O)Nc2ccc(C)cc2)cc1 [Compound 290, N-(4-ethylphenyl)-N′-(4-methylphenyl)urea]
< 2000	Cn1nnnc1-c1cccc(NC(=O)Nc2ccc(Cn3ccnn3)cc2)c1 [Compound 794, N-[3-(1-methyl-1H-tetrazol-5-yl)phenyl]-N′-[4-(1H-1,2,3-triazol-1-ylmethyl)phenyl]urea]
< 2000	CC(C)Oc1cccc(NC(=O)Nc2ccc([N+](=O)[O-])cc2)c1 [Compound 563, 1-(3-isopropoxyphenyl)-3-(4-nitrophenyl)urea]
< 2000	COc1ccc(NC(=O)Nc2ccc(C)c(Cl)c2)cc1 [Compound 622, 1-(3-chloro-4-methylphenyl)-3-(4-methoxyphenyl)urea]
< 2000	COC(=O)c1cccc(NC(=O)Nc2ccc(Cl)cc2)c1 [Compound 647, methyl 3-({[(4-chlorophenyl)amino]carbonyl}amino)benzoate]
< 2000	Cc1cccc(NC(=O)Nc2ccc(CC#N)cc2)c1 [Compound 459, 1-[4-(cyanomethyl)phenyl]-3-(3-methylphenyl)urea]
< 2000	CCCc1ccc(NC(=O)Nc2cccc(CC)c2)cc1 [Compound 334, 1-(3-ethylphenyl)-3-(4-propylphenyl)urea]

Continued, compound first:

Structure (SMILES)	IC50 [nM]
CCOC(=O)c1ccc(NC(=O)Nc2ccccc2Br)cc1 [Compound 764, ethyl 4-({[(2-bromophenyl)amino]carbonyl}amino)benzoate]	< 2000
O=C(Nc1ccc(Cl)cc1)Nc1ccc2c(c1)CCC2 [Compound 443, 1-(4-chlorophenyl)-3-(2,3-dihydro-1H-inden-5-yl)urea]	< 2000
COc1ccc(NC(=O)Nc2ccc([N+](=O)[O-])cc2)cc1 [Compound 557, 1-(4-methoxyphenyl)-3-(4-nitrophenyl)urea]	< 2000
CC(C)Oc1ccc(NC(=O)Nc2ccc(Cl)cc2)cc1 [Compound 405, 1-(4-chlorophenyl)-3-(4-isopropoxyphenyl)urea]	< 2000
O=C(Nc1ccc(OC(F)F)cc1)Nc1cnccn1 [Compound 627, 1-[4-(difluoromethoxy)phenyl]-3-pyrazin-2-ylurea]	< 2000
Cc1cc(NC(=O)Nc2cccc(OC(C)C)c2)ccc1F [Compound 689, 1-(4-fluoro-3-methylphenyl)-3-(3-isopropoxyphenyl)urea]	< 2000
COc1cccc(NC(=O)Nc2cccc(OC(F)F)c2)c1 [Compound 553, 1-[3-(difluoromethoxy)phenyl]-3-(3-methoxyphenyl)urea]	< 2000
CN(CCc1cccc(NC(=O)Nc2cccc(OC(F)F)c2)c1)S(C)(=O)=O [Compound 785, N-(2-{3-[({[3-(difluoromethoxy)phenyl]amino}carbonyl)amino]phenyl}ethyl)-N-methylmethane-sulfonamide]	< 2000
N#CCOc1ccc(NC(=O)Nc2ccc(F)cc2)cc1 [Compound 467, 1-[4-(cyanomethoxy)phenyl]-3-(4-fluorophenyl)urea]	< 2000
CCOC(=O)c1ccc(NC(=O)Nc2ccc(CCO)cc2)cc1 [Compound 754, ethyl 4-[({[4-(2-hydroxyethyl)phenyl]amino}carbonyl)amino] benzoate]	< 2000
O=C(Nc1cccc(F)c1)Nc1ccc2c(c1)CCC2 [Compound 431, 1-(2,3-dihydro-1H-inden-5-yl)-3-(3-fluorophenyl)urea]	< 2000
CCOC(=O)c1ccc(NC(=O)Nc2ccc(C)c(F)c2)cc1 [Compound 737, ethyl 4-({[(3-fluoro-4-methylphenyl)amino]carbonyl}amino)benzoate]	< 2000
Cc1cc(C)cc(NC(=O)Nc2cccc(OC(F)F)c2)c1 [Compound 710, 1-[3-(difluoromethoxy)phenyl]-3-(3,5-dimethylphenyl)urea]	< 2000
CCCc1ccc(NC(=O)Nc2ccc(F)c(C)c2)cc1 [Compound 656, 1-(4-fluoro-3-methylphenyl)-3-(4-propylphenyl)urea]	< 2000
CC(=O)c1ccc(NC(=O)Nc2ccc(F)c(C)c2)cc1 [Compound 451, 1-(4-acetylphenyl)-3-(4-fluoro-3-methylphenyl)urea]	< 2000
COC(=O)c1ccc(NC(=O)Nc2ccc(C)cc2)cc1 [Compound 470, methyl 4-({[(4-methylphenyl)amino]carbonyl}amino)benzoate]	< 2000
CCOC(=O)c1ccc(NC(=O)Nc2cccc(COC)c2)cc1 [Compound 666, ethyl 4-[({[3-(methoxymethyl)phenyl]amino}carbonyl)amino]benzoate]	< 2000
CCc1ccc(NC(=O)Nc2ccc(OC(F)(F)F)cc2)cc1 [Compound 517, 1-(4-ethylphenyl)-3-[4-(trifluoromethoxy)phenyl]urea]	< 2000
CCOc1cccc(NC(=O)Nc2cccc(C(=O)OC)c2)c1 [Compound 659, methyl 3-({[(3-ethoxyphenyl)amino]carbonyl}amino)benzoate]	< 2000
CCOc1cccc(NC(=O)Nc2ccccc2)c1 [Compound 374, 1-(3-ethoxyphenyl)-3-phenylurea]	< 2000
CC(=O)c1ccc(NC(=O)Nc2ccc3c(c2)CCC3)cc1 [Compound 456, 1-(4-acetylphenyl)-3-(2,3-dihydro-1H-inden-5-yl)urea]	< 2000

Same assay, conditions: Table I; IC50 at CB1, GTP binding with 1 nM CP55,940; read-out: IC50

IC50 [nM]	Structure (SMILES)
< 2000	CCc1ccc(NC(=O)Nc2cccc(F)c2)cc1 [Compound 58, N-(4-ethylphenyl)-N′-(3-fluorophenyl)urea]
< 2000	O=C(Nc1ccc(OC(F)F)cc1)Nc1cccc(F)c1 [Compound 16, N-[4-(difluoromethoxy)phenyl]-N′-(3-fluorophenyl)urea]
< 2000	CCc1ccc(NC(=O)Nc2cccc(C)c2)cc1 [Compound 59, N-(4-ethylphenyl)-N′-(3-methylphenyl)urea]
< 2000	O=C(Nc1ccc(OC(F)F)cc1)Nc1cccc(Cl)c1 [Compound 15, N-(3-chlorophenyl)-N′-[4-(difluoromethoxy)phenyl]urea]

Same assay, conditions: Table II; IC50 at CB1, GTP binding with 1 nM CP55,940; read-out: IC50

IC50 [nM]	Structure (SMILES)
< 2000	CCCc1ccc(NC(=O)Nc2cccc(CC)c2)cc1 [Compound 183, N-(3-ethylphenyl)-N′-(4-propylphenyl)urea]
< 2000	CC(C)c1ccc(NC(=O)Nc2ccc(Cl)cc2)cc1 [Compound 182, N-(4-chlorophenyl)-N′-(4-isopropylphenyl)urea]
< 2000	CCOc1cccc(NC(=O)Nc2ccc(C#N)cc2)c1 [Compound 261, N-(4-cyanophenyl)-N′-(3-ethoxyphenyl)urea]
< 2000	O=C(Nc1ccc(OC(F)F)cc1)Nc1cccc(-c2ccccn2)c1 [Compound 62, N-[4-(difluoromethoxy)phenyl]-N′-(3-pyridin-2-ylphenyl)urea]
< 2000	O=C(Nc1ccc(OC(F)F)cc1)Nc1cccc(-c2nccs2)c1 [Compound 71]
< 2000	Cc1cccc(NC(=O)Nc2ccc(-n3cnc(Cl)c3Cl)cc2)c1 [Compound 165, N-{4-(4,5-dichloro-1H-imidazol-1-yl)phenyl]-N′-(3-methylphenyl)urea]
< 2000	CCc1ccc(NC(=O)Nc2ccc3ncccc3c2)cc1 [Compound 128, N-(4-ethylphenyl)-N′-quinolin-6-ylurea]
< 2000	O=C(Nc1ccc(F)cc1)Nc1cccc(OC(F)F)c1 [Compound 220, N-[3-(difluoromethoxy)phenyl]-N′-(4-fluorophenyl)urea]

Further lines, the compound ahead of its results:

Structure (SMILES)	IC50 [nM]
O=C(Nc1ccc(OC(F)F)cc1)Nc1cc(C2CC2)n[nH]1 [Compound 106, N-(3-cyclopropyl-1H-pyrazol-5-yl)-N′-[4-(difluoromethoxy)phenyl]urea]	< 2000
N#Cc1cccc(NC(=O)Nc2cccc(OC(F)F)c2)c1 [Compound 284, N-(3-cyanophenyl)-N′-[3-(difluoromethoxy)phenyl]urea]	< 2000
O=C(Nc1ccc(OC(F)F)cc1)Nc1cccc(OC(F)(F)F)c1 [Compound 95, N-[4-(difluoromethoxy)phenyl]-N′-[3-(trifluoromethoxy)phenyl]urea]	< 2000
O=C(Nc1ccc(OC(F)F)cc1)Nc1ccc2c(c1)C(=O)CC2 [Compound 83, N-[4-(difluoromethoxy)phenyl]-N′-(3-oxo-2,3-dihydro-1H-inden-5-yl)urea]	< 2000
O=C(Nc1ccc(OC(F)F)cc1)Nc1cccc(-c2ccccc2)c1 [Compound 98, N-biphenyl-3-yl-N′-[4-(difluoromethoxy)phenyl]urea]	< 2000
CCc1ccc(NC(=O)Nc2ccc(F)cc2)cc1 [Compound 175, N-(4-ethylphenyl)-N′-(4-fluorophenyl)urea]	< 2000
CCc1ccc(NC(=O)Nc2ccc(F)c(C#N)c2)cc1 [Compound 152, N-(3-cyano-4-fluorophenyl)-N′-(4-ethylphenyl)urea]	< 2000
